Target: Axl (Homo sapiens (Human), UniProt P30530)
Test: Phospho-Akt in-cell Western assay (Axl-antibody cross-linking stimulation)
Assay type: cell-based
Conditions: inhibition of Axl activity
In short: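 HeLa cells on poly-L-lysine, starved 24 hrs with Axl/Fc, pre-treated with compound 1 hr at 37° C., then stimulated 5 min with Axl primary/secondary antibody cluster. Fixed cells probed for phospho-Akt by chemiluminescent in-cell Western; signal normalized to crystal violet cell number.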

[1] = phospho-Akt in-cell Western assay
[2] = Hela cells, phospho-Akt readout, Table 5, formula (Ia3)
[3] = Hela cells, phospho-Akt readout, Table 1, formula (Ia1)

Chain of Axl (P30530 26-894): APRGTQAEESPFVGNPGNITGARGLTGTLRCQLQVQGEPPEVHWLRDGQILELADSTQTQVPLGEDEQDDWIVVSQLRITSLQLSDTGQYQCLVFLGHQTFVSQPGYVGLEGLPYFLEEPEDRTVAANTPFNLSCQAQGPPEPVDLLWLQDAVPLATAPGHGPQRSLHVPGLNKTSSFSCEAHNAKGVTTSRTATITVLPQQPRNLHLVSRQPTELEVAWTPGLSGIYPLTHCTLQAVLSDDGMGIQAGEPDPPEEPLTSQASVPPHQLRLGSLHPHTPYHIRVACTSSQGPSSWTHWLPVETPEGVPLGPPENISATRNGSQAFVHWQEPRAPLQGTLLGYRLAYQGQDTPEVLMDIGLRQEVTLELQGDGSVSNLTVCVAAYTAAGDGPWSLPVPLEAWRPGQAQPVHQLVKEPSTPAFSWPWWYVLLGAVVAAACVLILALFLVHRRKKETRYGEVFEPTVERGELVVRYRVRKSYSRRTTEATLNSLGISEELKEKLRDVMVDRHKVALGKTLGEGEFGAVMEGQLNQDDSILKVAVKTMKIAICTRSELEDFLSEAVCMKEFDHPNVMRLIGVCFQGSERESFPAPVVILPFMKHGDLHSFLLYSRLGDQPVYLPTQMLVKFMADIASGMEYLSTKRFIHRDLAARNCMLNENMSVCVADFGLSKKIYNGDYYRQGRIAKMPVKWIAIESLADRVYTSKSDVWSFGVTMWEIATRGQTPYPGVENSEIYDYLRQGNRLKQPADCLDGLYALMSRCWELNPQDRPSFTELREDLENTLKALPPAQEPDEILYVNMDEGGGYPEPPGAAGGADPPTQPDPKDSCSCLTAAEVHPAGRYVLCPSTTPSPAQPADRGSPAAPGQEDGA

| IC50 [1] [nM] | IC50 [3] [nM] | SMILES | other results |
| --- | --- | --- | --- |
| < 1000 | – | CN1CCN(c2ccc(Nc3nc(N)n(-c4cc5c(nn4)-c4ccccc4CC5)n3)cc2)CC1 [Compound 108, 1-(5,6-dihydrobenzo[h]cinnolin-3-yl)-N^3-(4-(4-methylpiperazin-1-yl)phenyl)-1H-1,2,4-triazole-3,5-diamine] | – |
| < 1000 | – | C[C@H]1CN(c2ccc(Nc3nc(N)n(-c4ncnc5ccsc45)n3)cc2F)CCN1[C@H]1C[C@@H]2CC[C@H]1C2 [Compound 255, 1-thieno[3,2-d]pyrimidin-4-yl-N^3-(3-fluoro-4-(3-(S)-methyl-4-((1S,2S,4R)-bicyclo[2.2.1]heptan-2-yl)piperazin-1-yl)phenyl)-1H-1,2,4-triazole-3,5-diamine] | – |
| – | – | CN1CCC(c2ccc(Nc3nc(N)n(-c4nccc5ccccc45)n3)cc2)CC1 [Compound 167, 1-(isoquinolin-1-yl)-N^3-(4-(1-methylpiperidin-4-yl)phenyl)-1H-1,2,4-triazole-3,5-diamine] | IC50 [2]: < 1000 nM |
| – | < 1000 | Nc1nc(Nc2ccc(OCCN3CCCC3)c(Cl)c2)nn1-c1ncnc2sc3c(c12)CCCC3 [Compound 67, N^3-(3-chloro-4-(2-(pyrrolidin-1-yl)ethoxy)phenyl)-1-(5,6,7,8-tetrahydrobenzo[4,5]thieno[2,3-d]pyrimidin-4-yl)-1H-1,2,4-triazole-3,5-diamine] | – |
| – | – | Cc1csc2c(-n3nc(Nc4ccc(N5CCC(N6CC7CCC6C7)CC5)c(F)c4)nc3N)ncnc12 (stereo not drawn) [Compound 260, 1-(7-methylthieno[3,2-d]pyrimidin-4-yl)-N^3-(3-fluoro-4-(4-(2-azabicyclo[2.2.1]heptan-2-yl)piperidin-1-yl)phenyl)-1H-1,2,4-triazole-3,5-diamine] | IC50 [2]: < 1000 nM |
| – | > 20000 | Nc1nc(Nc2ccc(OCCN3CCCC3)cc2)nn1-c1ccc(Br)cn1 [Compound 32, 1-(5-bromopyridin-2-yl)-N^3-(4-(2-(pyrrolidin-1-yl)ethoxy)phenyl)-1H-1,2,4-triazole-3,5-diamine] | – |
| – | – | CN1CCN(c2ccc(Nc3nc(N)nn3-c3ncnc4ccc(Cl)cc34)cc2)CC1 [Compound 86, 1-(6-chloroquinazolin-4-yl)-N^5-(4-(4-methylpiperazin-1-yl)phenyl)-1H-1,2,4-triazole-3,5-diamine] | IC50 (Hela cells, phospho-Akt readout, Table 4, formula (Ib2)): < 1000 nM |
| – | 10000 to 20000 | CN(C)c1cccc(-n2nc(Nc3ccc(OCCN4CCCCC4)cc3)nc2N)n1 [Compound 36, 1-(6-(dimethylamino)pyridin-2-yl)-N^3-(4-(2-(piperidin-1-yl)ethoxy)phenyl)-1H-1,2,4-triazole-3,5-diamine] | – |
| – | > 20000 | Nc1nc(Nc2ccc(OCCN3CCCCC3)cc2)nn1-c1ccccc1F [Compound 28, 1-(2-fluorophenyl)-N^3-(4-(2-(piperidin-1-yl)ethoxy)phenyl)-1H-1,2,4-triazole-3,5-diamine] | – |
| 1000 to 10000 | – | CN1CCN(c2ccc(Nc3nc(N)n(-c4ncnc5cc(O)c(O)cc45)n3)cc2F)CC1 [Compound 116, 4-(5-amino-3-(3-fluoro-4-(4-methylpiperazin-1-yl)phenylamino)-1H-1,2,4-triazol-1-yl)quinaoline-6,7-diol] | – |
| – | > 20000 | Nc1nc(Nc2ccc(OCCN3CCCC3)cc2)nn1-c1ncccn1 [Compound 47, 1-(pyrimidin-2-yl)-N^3-(4-(2-(pyrrolidin-1-yl)ethoxy)phenyl)-1H-1,2,4-triazole-3,5-diamine] | – |
| > 20000 | – | COc1cc2c(C)nnc(-n3nc(Nc4ccc(N5CCN([C@H]6C[C@@H]7CC[C@H]6C7)CC5)c(F)c4)nc3N)c2cc1OC [Compound 228, 1-(6,7-dimethoxy-1-methylphthalazin-4-yl)-N^3-(3-fluoro-4-(4-((1S,2S,4R)-bicyclo[2.2.1]heptan-2-yl)piperazin-1-yl)phenyl)-1H-1,2,4-triazole-3,5-diamine] | – |
| > 20000 | – | COc1cc2cnc(-n3nc(Nc4ccc(N5CCN([C@H]6C[C@@H]7CC[C@H]6C7)CC5)cc4)nc3N)nc2cc1OC (racemic) [Compound 182, 1-(6,7-dimethoxyquinazolin-2-yl)-N^3-(4-(4-((1S,2S,4R)-bicyclo[2.2.1]heptan-2-yl)-piperazin-1-yl)phenyl)-1H-1,2,4-triazole-3,5-diamine] | – |
| – | < 1000 | Nc1nc(Nc2ccc(OCCN3CCCC3)c(F)c2)nn1-c1ccccn1 [Compound 57, N^3-(3-fluoro-4-(2-(pyrrolidin-1-yl)ethoxy)phenyl)-1-(pyridin-2-yl)-1H-1,2,4-triazole-3,5-diamine] | – |
| < 1000 | – | Nc1nc(Nc2ccc(N3CCN(C4CCCC4)CC3)c(F)c2)nn1-c1nc2ccccc2c2ccccc12 [Compound 192, 1-(phenanthridin-6-yl)-N^3-(3-fluoro-4-(4-cyclopentylpiperazin-1-yl)phenyl)-1H-1,2,4-triazole-3,5-diamine] | – |
| – | 1000 to 10000 | COc1cccc(-n2nc(Nc3ccc(OCCN4CCCC4)cc3)nc2N)n1 [Compound 30, 1-(6-methoxypyridin-2-yl)-N^3-(4-(2-(pyrrolidin-1-yl)ethoxy)phenyl)-1H-1,2,4-triazole-3,5-diamine] | – |
| – | – | CC(=O)c1ccc(Nc2nc(N)n(-c3cnc4ccccc4n3)n2)cc1 [Compound 144, 1-(4-(5-amino-1-(quinoxalin-2-yl)-1H-1,2,4-triazol-3-ylamino)phenyl)ethanone] | IC50 [2]: > 20000 nM |
| < 1000 | – | Cc1csc2c(-n3nc(Nc4ccc(N5CCN([C@H]6C[C@@H]7CC[C@H]6C7)CC5)c(F)c4)nc3N)ncnc12 [Compound 245, 1-(7-methylthieno[3,2-d]pyrimidin-4-yl)-N^3-(3-fluoro-4-(4-((1S,2S,4R)-bicyclo[2.2.1]heptan-2-yl)piperazin-1-yl)phenyl)-1H-1,2,4-triazole-3,5-diamine] | – |
| – | 1000 to 10000 | Nc1nc(Nc2ccc(OCCN3CCCC3)cc2)nn1-c1cnccn1 [Compound 13, 1-(pyrazin-2-yl)-N^3-(4-(2-(pyrrolidin-1-yl)ethoxy)phenyl)-1H-1,2,4-triazole-3,5-diamine] | – |
| – | > 20000 | CC1CCCN1CCOc1ccc(Nc2nc(N)n(-c3nc4ccccc4n3C)n2)cc1 (stereo not drawn) [Compound 23, 1-(1-methyl-1H-benzo[d]imidazol-2-yl)-N^3-(4-(2-(2-methylpyrrolidin-1-yl)ethoxy)phenyl)-1H-1,2,4-triazole-3,5-diamine] | – |
| – | < 1000 | Nc1nc(Nc2ccc(OCCN3CCCC3)cc2)nn1-c1cnc2ccccc2n1 [Compound 9, N^3-(4-(2-(pyrrolidin-1-yl)ethoxy)phenyl)-1-(quinoxalin-2-yl)-1H-1,2,4-triazole-3,5-diamine] | – |
| – | – | CN1CCN(Cc2ccc(Nc3nc(N)n(-c4nccc5ccccc45)n3)cc2)CC1 [Compound 163, 1-(isoquinolin-1-yl)-N^3-(4-((4-methylpiperazin-1-yl)methyl)phenyl)-1H-1,2,4-triazole-3,5-diamine] | IC50 [2]: < 1000 nM |
| – | – | Nc1nc(Nc2ccc(N3CCC(N4CCCC4)CC3)c(F)c2)nn1-c1cc(-c2ccccc2)ccn1 [Compound 259, 1-(4-phenylpyridin-2-yl)-N^3-(3-fluoro-4-(4-(pyrrolidin-1-yl)piperidin-1-yl)phenyl)-1H-1,2,4-triazole-3,5-diamine] | IC50 [2]: < 1000 nM |
| < 1000 | – | Nc1nc(Nc2ccc(N3CCN(C4CC5CCC4C5)CC3)cc2)nn1-c1ncnc2sccc12 (stereo not drawn) [Compound 127, N^3-(4-(4-(bicyclo[2.2.1]heptan-2-yl)piperazin-1-yl)phenyl)-1-(thieno[2,3-d]pyrimidin-4-yl)-1H-1,2,4-triazole-3,5-diamine] | – |

— patent publication US10166216B2 (Rigel Pharmaceuticals, Inc., priority 2006, dated 2019)
